According to US20220233605A1, “METHODS OF MAKING AND USING LIVER CELLS” (University Health Network, priority 2019, published 2022):
Entries after “also recorded” stand apart in the source; their conditions may differ.

Key:
Type in all cases: cell-based, human
CFTR expression = assay: Induction of CFTR expression in hepatoblasts differentiated to cholangiocytes in monolayer (co-culture with OP9-Jag1); settings: hepatoblasts co-cultured with OP9-Jag1, monolayer, 6 days
Protocol: OP9 cells were maintained as described previously. 30 Gray irradiated OP9 cells were plated on 2.5% Matrigel coated wells (12 well plates) at a concentration of 200,000 cells per well in alpha-modified minimum essential media (a-MEM) supplemented with glutamine (2 mM) and 20% fetal bovine serum. To induce the cholangiocytes differentiation, day 27 hepatoblasts were dissociated using collagenase type I enzyme and then plated onto the irradiated OP9 cells. The plated cells were cultured in H21 DMEM/Ham's F12 (3:1) media supplemented with 0.1% BSA, 1% vol/vol B27 supplement, ascorbic acid, glutamine, MTG, HGF (20 ng/ml), and epidermal growth factor (EGF, 50 ng/ml) for 4 days. […] To promote the maturation of cholangiocytes that express primary cilia and 4D9, the cells were cultured with DMEM/F12 medium with 0.1% BSA, 1% vol/vol B27 supplement, ascorbic acid, glutamine, MTG, Noggin (50 ng/ml), ROCK inhibitor Y-27632 (5 μM) and Forskolin (FSK, 5 μM) for 12 days. The medium for all steps of cholangiocytes differentiation were changed every two days. The cells were maintained in an ambient O2 incubator.
It has previously been reported that it is possible to generate cholangiocytes that express a number of markers that are indicative of mature cells including the cystic fibrosis transmembrane conductance regulator (CFTR) gene, in which mutations cause cystic fibrosis. The development of mature cholangiocytes was dependent on growth of the cells as cysts in 3D semi-solid cultures consisting of Matrigel and collagen. While this approach yielded relatively mature cholangiocytes, the culture system was not amenable to cell expansion or high throughput screening (e.g., for drugs against cystic fibrosis and other biliary diseases). To improve the differentiation efficiency in monolayer cultures, a panel of cytokines and small molecules that are known to play a role in bile duct development were screened to identify those that would promote the upregulation of CFTR expression as an indication of maturation. Since Notch signaling is required for the production of cholangiocytes, hepatoblasts were cultured on either OP9-Jagl cells or Matrigel for 6 days as previously described. […] To further investigate the role of RA signaling, the effects of specific RA receptor agonists as well as a pan antagonist also were tested.

hPSC-derived hepatocytes [1] = assay: Zonation of hPSC-derived hepatocytes by Wnt manipulation (gene expression); settings: added days 38 to 56 with T3
Protocol: Day 27 hepatoblasts were cultured in DMEM/F12 (50:50) with 0.2% BSA, 1% vol/vol ITS-X, ascorbic acid, glutamine, MTG, Dex (40 ng/ml), and OSM (5 ng/ml) for 6 days in monolayer. Day 33 hepatoblasts were dissociated using collagenase type 1 enzyme to make a small cluster of hepatoblasts. The dissociated small clusters were maintained in a low cluster culture dish and cultured in DMEM/F12 (50:50) medium supplemented with 0.2% BSA, 1% vol/vol ITS-X, ascorbic acid, 1% vol/vol chemically defined lipid mix medium (Thermo Fisher Scientific), 0.5% vol/vol B27, glutamine, MTG, Dex (40 ng/ml), and CHIR99021 (1 μM) for 6 days to promote the maturation in 3D aggregates. […]

hPSC-derived hepatocytes [2] = assay: Maturation of hPSC-derived hepatocytes: AFP expression by flow cytometry and qRT-PCR; settings: added days 38 to 56, aggregates, 40 ng/ml dexamethasone
Protocol: For these studies, T3 was added to the cultures during the maturation step, from days 38 to 56. During this stage, the cells are cultured as aggregate in the presence of 40 ng/ml dexamethasone, as previously described.

[3] = system: hPSC-derived cholangiocytes; assay: Flow cytometric screen for DHC5-4D9 reactive mature cholangiocytes in monolayer; settings: added to cultures for 6 days, flow cytometry
Protocol: 30 Gray irradiated OP9 cells were plated on 2.5% Matrigel coated wells (12 well plates) at a concentration of 200,000 cells per well in alpha-modified minimum essential media (a-MEM) supplemented with glutamine (2 mM) and 20% fetal bovine serum. To induce the cholangiocytes differentiation, day 27 hepatoblasts were dissociated using collagenase type I enzyme and then plated onto the irradiated OP9 cells. The plated cells were cultured in H21 DMEM/Ham's F12 (3:1) media supplemented with 0.1% BSA, 1% vol/vol B27 supplement, ascorbic acid, glutamine, MTG, HGF (20 ng/ml), and epidermal growth factor (EGF, 50 ng/ml) for 4 days. […] To promote the maturation of cholangiocytes that express primary cilia and 4D9, the cells were cultured with DMEM/F12 medium with 0.1% BSA, 1% vol/vol B27 supplement, ascorbic acid, glutamine, MTG, Noggin (50 ng/ml), ROCK inhibitor Y-27632 (5 μM) and Forskolin (FSK, 5 μM) for 12 days. […]
To identify pathways that promote further maturation of the hPSC-derived cholangiocytes, a screening approach was used based on flow cytometric identification of cells that express the epitope recognized by the antibody DHCS-4D9, which stains mature bile ductal cells (cholangiocytes) in the adult liver. […] Following this maturation step, the cells were harvested and analyzed by flow cytometry for reactivity with DHC5-4D9.

CCCCCCCCc1ccc(-c2ccc(C(=O)O)cc2)cc1 [AC55649]
CFTR expression (CFTR expression): induced CFTR expression

CC1(C)CC=C(C#Cc2ccccc2)c2cc(/C=C/c3ccc(C(=O)O)cc3)ccc21 [BMS493]
CFTR expression (CFTR expression): inhibited the induction of CFTR expression

O=C(O)c1ccc2cc(-c3ccc(O)c(C45CC6CC(CC(C6)C4)C5)c3)ccc2c1 [CD437]
CFTR expression (CFTR expression): induced CFTR expression

Cc1c[nH]c(-c2cnc(NCCNc3ccc(C#N)cn3)nc2-c2ccc(Cl)cc2Cl)n1 [CHIR, 6-[[2-[[4-(2,4-Dichlorophenyl)-5-(5-methyl-1H-imidazol-2-yl)-2-pyrimidinyl]amino]ethyl]amino]-3-pyridinecarbonitrile]
zonal gene expression of hepatocytes (hPSC-derived hepatocytes [1]): expressed genes associated with Zone 3 hepatocytes

N[C@@H](Cc1cc(I)c(Oc2ccc(O)c(I)c2)c(I)c1)C(=O)O [T3, Triiodothyronine]
levels of AFP expression (hPSC-derived hepatocytes [2]): dramatic decrease in the levels of AFP expression; also recorded: significantly lower than the levels observed in cells treated with cAMP

Oc1nc(-c2ccc(C(F)(F)F)cc2)nc2c1CSCC2 [XAV]
zonal gene expression of hepatocytes (hPSC-derived hepatocytes [1]): expressed genes associated with Zone 1 hepatocytes

AM580
CFTR expression (CFTR expression): induced CFTR expression

B1: N: Noggin, inhibition of the BMP pathway (protein, UniProt Q13253 28-232, looked up)
Noggin: QHYLHIRPAPSDNLPLVDLIEHPDPIFDPKEKDLNETLLRSLLGGHYDPGFMATSPPEDRPGGGGGAAGGAEDLAELDQLLRQRPSGAMPSEIKGLEFSEGLAQGKKQRLSKKLRRKLQMWLWSQTFCPVLYAWNDLGSRFWPRYVKVGSCFSKRSCSVPEGMVCKPSKSVHLTVLRWRCQRRGGQRCGWIPIQYPIISECKCSC
development of DHC5-4D9 cells [3]: promoted the development of DHC5-4D9 cells
